How the values were obtained:
THP-1 [1] = assay: Pro-apoptotic activity in human THP1 cells assessed as late apoptotic cells at 10 uM after 24 hrs by annexin V/propidium iodide staining-based flow cytometric method (reference value: 0.4 +/- 0.1%); type: functional
THP-1 [2] = assay: Pro-apoptotic activity in human THP1 cells assessed as necrotic cells at 0.75 uM after 24 hrs by annexin V/propidium iodide staining-based flow cytometric method relative to control; type: functional
THP-1 [3] = assay: Pro-apoptotic activity in human THP1 cells assessed as late apoptotic cells at 30 uM after 24 hrs by annexin V/propidium iodide staining-based flow cytometric method (reference value: 0.4 +/- 0.1%); type: functional
ASPC1 [4] = assay: Induction of pro-differentiation of human AsPC1 cells assessed as CD44 expression at 10 uM after 3 days by immunostaining-based micro-capillary flow cytometric method (reference value: 87 +/- 1%); type: functional
THP-1 [5] = assay: Pro-apoptotic activity in human THP1 cells assessed as early apoptotic cells at 30 uM after 24 hrs by annexin V/propidium iodide staining-based flow cytometric method (reference value: 0.4 +/- 0.1%); type: functional
THP-1 [6] = assay: Pro-apoptotic activity in human THP1 cells assessed as early apoptotic cells at 10 uM after 24 hrs by annexin V/propidium iodide staining-based flow cytometric method (reference value: 0.4 +/- 0.1%); type: functional
[7] = Cell cycle arrest in human AsPC1 cells assessed as accumulation at G0/G1 phase at 10 uM after 24 hrs by flow cytometric method (reference value: 48 +/- 7%); type: functional, cell-based
[8] = Cell cycle arrest in human AsPC1 cells assessed as accumulation at G2/M phase at 50 uM after 24 hrs by flow cytometric method (reference value: 29 +/- 5%); type: functional, cell-based
ASPC1 [9] = assay: Pro-apoptotic activity in human AsPC1 cells assessed as necrotic cells at 100 uM after 24 hrs by annexin V/propidium iodide staining-based flow cytometric method (reference value: 2.1 +/- 0.4%); type: functional
[10] = Cell cycle arrest in human AsPC1 cells assessed as accumulation at G0/G1 phase at 50 uM after 24 hrs by flow cytometric method (reference value: 48 +/- 7%); type: functional, cell-based
[11] = Cell cycle arrest in human THP1 cells assessed as accumulation at S phase after 24 hrs by flow cytometric method; type: functional, cell-based; settings: THP-1
[12] = Cell cycle arrest in human THP1 cells assessed as accumulation at G2/M phase at 1 uM after 24 hrs by flow cytometric method (reference value: 32 +/- 1%); type: functional, cell-based; settings: THP-1
[13] = Cell cycle arrest in human THP1 cells assessed as accumulation at S phase at 1 uM after 24 hrs by flow cytometric method (reference value: 16 +/- 2%); type: functional, cell-based; settings: THP-1
[14] = Cell cycle arrest in human AsPC1 cells assessed as accumulation at G0/G1 phase at 1 uM after 24 hrs by flow cytometric method (reference value: 48 +/- 7%); type: functional, cell-based
ASPC1 [15] = assay: Pro-apoptotic activity in human AsPC1 cells assessed as necrotic cells at 30 uM after 24 hrs by annexin V/propidium iodide staining-based flow cytometric method (reference value: 2.1 +/- 0.4%); type: functional
[16] = Cell cycle arrest in human THP1 cells assessed as accumulation at G0/G1 phase at 10 uM after 24 hrs by flow cytometric method (reference value: 51 +/- 6%); type: functional, cell-based; settings: THP-1
THP-1 [17] = assay: Pro-apoptotic activity in human THP1 cells assessed as late apoptotic cells at 0.75 uM after 24 hrs by annexin V/propidium iodide staining-based flow cytometric method (reference value: 0.4 +/- 0.1%); type: functional
[18] = Cell cycle arrest in human AsPC1 cells assessed as accumulation at S phase at 10 uM after 24 hrs by flow cytometric method (reference value: 23 +/- 3%); type: functional, cell-based
[19] = Cell cycle arrest in human AsPC1 cells assessed as accumulation at G2/M phase at 100 uM after 24 hrs by flow cytometric method (reference value: 29 +/- 5%); type: functional, cell-based
[20] = Antioxidant activity assessed as DPPH free radical scavenging activity incubated for 30 mins in dark; type: functional
ASPC1 [21] = assay: Pro-apoptotic activity in human AsPC1 cells assessed as early apoptotic cells at 10 uM after 24 hrs by annexin V/propidium iodide staining-based flow cytometric method (reference value: 0.8 +/- 0.1%); type: functional
THP-1 [22] = assay: Pro-apoptotic activity in human THP1 cells assessed as early apoptotic cells at 3 uM after 24 hrs by annexin V/propidium iodide staining-based flow cytometric method (reference value: 0.4 +/- 0.1%); type: functional
THP-1 [23] = assay: Pro-apoptotic activity in human THP1 cells assessed as late apoptotic cells at 0.5 uM after 24 hrs by annexin V/propidium iodide staining-based flow cytometric method (reference value: 0.4 +/- 0.1%); type: functional
[24] = Cell cycle arrest in human AsPC1 cells assessed as accumulation at G0/G1 phase at 30 uM after 24 hrs by flow cytometric method (reference value: 48 +/- 7%); type: functional, cell-based
ASPC1 [25] = assay: Pro-apoptotic activity in human AsPC1 cells assessed as early apoptotic cells at 1 uM after 24 hrs by annexin V/propidium iodide staining-based flow cytometric method (reference value: 0.8 +/- 0.1%); type: functional
ASPC1 [26] = assay: Pro-apoptotic activity in human AsPC1 cells assessed as early apoptotic cells at 50 uM after 24 hrs by annexin V/propidium iodide staining-based flow cytometric method (reference value: 0.8 +/- 0.1%); type: functional
[27] = Cell cycle arrest in human THP1 cells assessed as accumulation at G0/G1 phase at 1 uM after 24 hrs by flow cytometric method (reference value: 51 +/- 6%); type: functional, cell-based; settings: THP-1
[28] = Cell cycle arrest in human THP1 cells assessed as accumulation at G0/G1 phase at 0.5 uM after 24 hrs by flow cytometric method (reference value: 51 +/- 6%); type: functional, cell-based; settings: THP-1
[29] = Cell cycle arrest in human AsPC1 cells assessed as accumulation at G2/M phase at 75 uM after 24 hrs by flow cytometric method (reference value: 29 +/- 5%); type: functional, cell-based
ASPC1 [30] = assay: Pro-apoptotic activity in human AsPC1 cells assessed as late apoptotic cells at 75 uM after 24 hrs by annexin V/propidium iodide staining-based flow cytometric method (reference value: 0.8 +/- 0.1%); type: functional
THP-1 [31] = assay: Pro-apoptotic activity in human THP1 cells assessed as necrotic cells at 0.5 uM after 24 hrs by annexin V/propidium iodide staining-based flow cytometric method relative to control; type: functional
ASPC1 [32] = assay: Induction of pro-differentiation of human AsPC1 cells assessed as CD44 expression at 1 uM after 3 days by immunostaining-based micro-capillary flow cytometric method (reference value: 87 +/- 1%); type: functional
[33] = Cell cycle arrest in human AsPC1 cells assessed as accumulation at G2/M phase at 10 uM after 24 hrs by flow cytometric method (reference value: 29 +/- 5%); type: functional, cell-based
[34] = Cell cycle arrest in human THP1 cells assessed as accumulation at G2/M phase at 10 uM after 24 hrs by flow cytometric method (reference value: 32 +/- 1%); type: functional, cell-based; settings: THP-1
[35] = Cell cycle arrest in human AsPC1 cells assessed as accumulation at S phase at 100 uM after 24 hrs by flow cytometric method (reference value: 23 +/- 3%); type: functional, cell-based

For NC(=[Se])N/N=C/c1cccc2cccnc12, the Activity (THP-1 [1]) was 49%, the Activity (THP-1 [2]) was 0.7% and the Activity (THP-1 [3]) was 46%. For the same compound, the Activity (ASPC1 [4]) was 77%, the Activity (THP-1 [5]) was 8% and the Activity (THP-1 [6]) was 6%. The Activity [7] was 62%, the Activity [8] was 8.6% and the Activity (ASPC1 [9]) was 5.5%. The Activity [10] was 65.4%, the Activity [11] was “Dose-dependent effect” and the Activity [12] was 31%. For the same compound, the Activity [13] was 26%, the Activity [14] was 53.8% and the Activity (ASPC1 [15]) was 1.9%. For the same compound, the Activity [16] was 45%, the Activity (THP-1 [17]) was 2.4% and the Activity [18] was 21.3%. The Activity [19] was 17%, the IC50 [20] was 12.5 µM and the Activity (ASPC1 [21]) was 0.4%. For the same compound, the Activity (THP-1 [22]) was 2.2%, the Activity (THP-1 [23]) was 2% and the Activity [24] was 69.2%. For the same compound, the Activity (ASPC1 [25]) was 0.2%, the Activity (ASPC1 [26]) was 0.4% and the Activity [27] was 43%. For the same compound, the Activity [28] was 50%, the Activity [29] was 14.4% and the Activity (ASPC1 [30]) was 4.1%. For the same compound, the Activity (THP-1 [31]) was 0.7%, the Activity (ASPC1 [32]) was 53% and the Activity [33] was 16.7%. It also gave an Activity [34] of 28% and an Activity [35] of 18.8%.

Source: ChEMBL document CHEMBL3861944 (Medchemcomm, 2016)
